We go through 5 molecules from patent US12441733B2, “Substituted 2,4-dioxotetrahydropyrimidines as intermediates in the synthesis of bruton's tyrosine kinase inhibitors” (Novartis AG, priority 2018, dated 2025).

This assay addresses T1, BTK(C481S)-GFP (Homo sapiens, UniProt Q06187+Q96SW2, C481S).
T1 construct: CHYSEL (cis-acting hydrolase element, 2A) remnant after GFP; mCherry is split off as a separate protein (C); expressed in transfected cells; host or cells: TMD8 cells, lentiviral transduction with pLenti6-BTK(C481S)-GFP-CHYSEL-mCherry
Kind of assay: BTK(C481S)-GFP protein abundance flow cytometry assay in TMD8 cells. Type of assay: cell-based. The conditions noted are these: TMD8 cells expressing BTK(C481S)-GFP; for DC50: GFP signal by flow cytometry; for BTK (C481S) Amax: % protein remaining at maximum degradation. How it is done:
Compounds of the invention were tested in the following cellular assays. The terms in Table 2 are defined as follows: DC50 refers to the concentration at which 50% maximal degradation was observed; deg Amax is the extent of degradation and the value refers to the % protein remaining at the concentration at which maximum degradation is seen; ProI GI50 refers to the proliferation data and defines the concentration at which 50% growth inhibition was observed compared to the vehicle treated control at the end of the incubation time. TMD8 cells are BTK dependent and OCI-LY3 cells are BTK independent.
Btk(C481S)-GFP Protein Abundance Flow Cytometry Assay in TMD8 Cells:
Degradation of BTK(C481S) was measured in TMD8 cells expressing BTK(C481S)-GFP and mCherry from a stably integrated second generation bicistronic BTK(C481S)-GFP-CHYSEL-mCherry construct. Reduction of the […] measured by flow cytometry served as readout for BTK(C481S) degradation after degrader treatment.
Cloning of the pLenti6-BTK(C481)-GFP-CHYSEL-mCherry Sensor Vectors
The BTK(C481 S) protein abundance sensor is based on a second generation bicistronic construct, where the 2 reading frames BTK(C481S) and mCherry control are separated by a cis-acting hydrolase element (see: Lo et al., 2015 Cell Reports 13, 2634), replacing the Ires from the first generation vector described before.
The bicistronic BTK(C481S)-GFP-CHYSEL-mCherry construct is based on a pLenti6-DEST vector backbone where a GFP-CHYSEL-mCherry cassette was synthesized and inserted downstream of the DEST cassette by Gibson assembly resulting in the new gateway compatible vector pLenti6-DEST-GFP-CHYSEL-mCherry to allow Gateway cloning with pENTR221-BTK(C48S)(STOP-Leu) to obtain the final sensor construct pLenti6-BTK(C481S)-GFP-CHYSEL-mCherry. The pENTR221-BTK(C481S)(STOP-Leu) was generated by mutating wild-type BTK to BTK(C481S) with a mutagenesis reaction on pENTR221-BTK (STOP-Leu) with the following primers (BTK C481S Quikchange fw, gagtacatggccaatggctCcctcctgaactacctgagg (SEQ ID NO: 7); BTK C481S Quikchange REVC, cctcaggtagttcaggaggGagccattggccatgtactc (SEQ ID NO: 8)) using the QuikChange Lightning mutagenesis kit (Agilent Technologies #210518) performed according to the manufacturer's manual, resulting in pENTR221-BTK(C481S)(STOP-Leu).
Sequence of the synthesized construct (Xho1 sites are shown in bold, mCherry-ORF is shown in small letters):
Engineering of Stably Expressing TMD8 BTK(C481 S-GFP-CHYSEL-mCherry Sensor Cells
TMD8 BTK(C481S)-GFP-CHYSEL-mCherry sensor cells were generated by lentiviral vector transduction using the pLenti6-BTK(C4818)-GFP-CHYSEL-mCherry sensor construct described before. Lentiviral particles were produced in HEK293FT cells (Invitrogen R70007) by co-transfection of 500 ng pLenti6-BTK-GFP-Ires-RFP or pLenti6-IKZF3-GFP-Ires-RFP, 500 ng delta8.71 and 200 ng pVSVG diluted in 100 μl OptiMEM serum free medium (Invitrogen #11058-021) that was mixed after 5 min preincubation with 3 μl of Lipofectamine2000 (Invitrogen #11668-019) in 97 μl OptiMEM serum free medium. The mix was incubated for another 20 min at RT and then added to 1 ml of a freshly prepared suspension of HEK293FT cells in a well of a 6-well plate (concentration 1.2×10^6 cells/ml). 1 day after transfection, the medium was replaced with 1.5 ml of complete growth medium (DMEM high Glucose+10% FCS+1% L-Glutamine+1% NEAA+1% NaPyr.). 48 h post transfection supernatant containing viral transducing particles was collected and frozen at −80° C.
Two days before transduction with viral particles 1×10^5 HEK293A cells (Invitrogen R7057) were seeded in 2 ml growth medium in a well of a 6-well plate. Infection was performed with 90 μl of collected supernatant containing viral transducing particles in 1 ml medium including 8 μg/ml polybrene. 24 h post infection, stably transfected cells were selected with blasticidin at a concentration of 8 μg/ml.
Background: A flow cytometer gives signals particle by particle.

T1 sequence (Q06187 whole entry C481S): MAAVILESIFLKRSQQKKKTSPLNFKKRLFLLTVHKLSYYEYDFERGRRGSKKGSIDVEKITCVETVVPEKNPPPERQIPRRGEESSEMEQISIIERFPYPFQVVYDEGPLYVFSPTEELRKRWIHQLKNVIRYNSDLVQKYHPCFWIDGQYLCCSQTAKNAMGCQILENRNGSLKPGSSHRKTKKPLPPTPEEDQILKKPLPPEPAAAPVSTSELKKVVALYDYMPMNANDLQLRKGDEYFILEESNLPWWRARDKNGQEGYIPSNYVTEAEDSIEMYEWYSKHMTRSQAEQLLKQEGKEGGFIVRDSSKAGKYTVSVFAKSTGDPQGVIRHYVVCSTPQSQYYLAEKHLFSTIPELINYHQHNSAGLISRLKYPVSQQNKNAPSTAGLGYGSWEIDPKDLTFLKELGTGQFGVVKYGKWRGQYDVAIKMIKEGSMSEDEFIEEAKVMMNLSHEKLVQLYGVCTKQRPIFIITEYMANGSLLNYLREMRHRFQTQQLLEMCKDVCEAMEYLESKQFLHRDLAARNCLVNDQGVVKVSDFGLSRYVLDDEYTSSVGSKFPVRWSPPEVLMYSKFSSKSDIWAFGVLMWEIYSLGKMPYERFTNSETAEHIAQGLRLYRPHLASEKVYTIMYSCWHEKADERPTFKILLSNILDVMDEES
T1 sequence (Q96SW2 whole entry): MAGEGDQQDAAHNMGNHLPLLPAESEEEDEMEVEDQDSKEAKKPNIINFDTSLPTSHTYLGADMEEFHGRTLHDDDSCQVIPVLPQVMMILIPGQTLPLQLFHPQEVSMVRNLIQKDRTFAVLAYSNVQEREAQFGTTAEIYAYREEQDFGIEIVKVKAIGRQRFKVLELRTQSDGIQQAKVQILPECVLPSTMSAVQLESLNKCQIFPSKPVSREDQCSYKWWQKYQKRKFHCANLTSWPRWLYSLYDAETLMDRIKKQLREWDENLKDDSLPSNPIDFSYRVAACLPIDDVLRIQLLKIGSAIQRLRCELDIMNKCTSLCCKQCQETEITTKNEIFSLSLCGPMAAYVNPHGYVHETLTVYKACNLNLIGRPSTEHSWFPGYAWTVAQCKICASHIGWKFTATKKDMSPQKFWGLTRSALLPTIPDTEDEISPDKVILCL
T1 sequence (Q16531 whole entry partner): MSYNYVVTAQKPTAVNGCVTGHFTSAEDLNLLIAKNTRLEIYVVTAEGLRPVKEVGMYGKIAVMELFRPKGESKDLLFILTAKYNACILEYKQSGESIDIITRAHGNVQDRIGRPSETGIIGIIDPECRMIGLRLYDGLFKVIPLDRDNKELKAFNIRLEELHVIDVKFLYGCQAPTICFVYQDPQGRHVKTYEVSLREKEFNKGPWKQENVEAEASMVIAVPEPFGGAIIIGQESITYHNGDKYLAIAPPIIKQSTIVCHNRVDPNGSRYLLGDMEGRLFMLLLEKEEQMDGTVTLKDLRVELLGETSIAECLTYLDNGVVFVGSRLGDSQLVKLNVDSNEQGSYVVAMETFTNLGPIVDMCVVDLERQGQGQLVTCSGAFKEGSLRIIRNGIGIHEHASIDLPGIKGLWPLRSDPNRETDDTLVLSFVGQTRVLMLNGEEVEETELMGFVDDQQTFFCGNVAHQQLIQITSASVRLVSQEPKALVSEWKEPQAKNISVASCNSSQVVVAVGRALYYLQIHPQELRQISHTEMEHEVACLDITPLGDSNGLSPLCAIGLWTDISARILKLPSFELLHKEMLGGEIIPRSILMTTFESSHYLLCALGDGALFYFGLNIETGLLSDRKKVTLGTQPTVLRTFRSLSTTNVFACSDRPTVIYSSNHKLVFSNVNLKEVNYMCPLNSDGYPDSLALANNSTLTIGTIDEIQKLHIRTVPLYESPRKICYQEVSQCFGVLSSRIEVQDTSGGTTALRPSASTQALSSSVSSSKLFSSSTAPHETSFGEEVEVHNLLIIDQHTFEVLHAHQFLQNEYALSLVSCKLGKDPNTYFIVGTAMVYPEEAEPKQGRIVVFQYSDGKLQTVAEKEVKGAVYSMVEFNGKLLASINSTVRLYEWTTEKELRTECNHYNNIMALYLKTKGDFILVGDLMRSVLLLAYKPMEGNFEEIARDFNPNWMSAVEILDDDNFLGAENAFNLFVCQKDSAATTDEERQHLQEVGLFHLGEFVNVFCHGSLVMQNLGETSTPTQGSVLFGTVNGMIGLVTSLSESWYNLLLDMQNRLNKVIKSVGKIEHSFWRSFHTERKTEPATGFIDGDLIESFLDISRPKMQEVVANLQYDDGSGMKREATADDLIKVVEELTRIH

On to `COc1ccc(C(=O)N2CCN(C(=O)N3CCN(Cc4ccc(-c5cc6c(-c7cc(F)cc(NC(=O)c8ccc(C(C)(C)O)cc8F)c7C)ncnc6[nH]5)cc4)CC3)CC2)cc1N1CCC(=O)NC1=O` [Compound 22, N-(3-(6-(4-((4-(4-(3-(2,4-Dioxotetrahydropyrimidin-1(2H)-yl)-4-methoxybenzoyl)piperazine-1-carbonyl)piperazin-1-yl)methyl)phenyl)-7H-pyrrolo[2,3-d]pyrimidin-4-yl)-5-fluoro-2-methylphenyl)-2-fluoro-4-(2-hydroxypropan-2-yl)benzamide], for which the DC50 came to 2.47 nM and the “BTK (C481S) Amax” value amounted to 4.5%.
For `Cc1c(NC(=O)c2ccc(C(C)(C)O)cc2F)cc(F)cc1-c1ncnc2[nH]c(-c3ccc(COC4CCN(CCC5CCN(C(=O)c6ccc(F)c(N7CCC(=O)NC7=O)c6)CC5)CC4)cc3)cc12` [Compound 6, N-(3-(6-(4-(((1-(2(1-(3-(2,4-dioxotetrahydropyrimidin-1(2H)-yl)-4-fluorobenzoyl)piperidin-4-yl)ethyl)piperidin-4-yl)oxyl)methyl)phenyl)-7H-pyrrolo[2,3-d]pyrimidin-4-yl)-5-fluoro-2-methylphenyl)-2-fluoro-4-(2-hydroxypropan-2-yl)benzamide], the DC50 is 0.72 nM and the “BTK (C481S) Amax” value worked out at 2.1%.
Taken in the same sequence, the figures for `Cc1ccc(C(=O)N2CCC3(CCN(Cc4ccc(-c5cc6c(-c7cc(F)cc(NC(=O)c8ccc(C(C)(C)O)cc8F)c7C)ncnc6[nH]5)cc4)CC3)CC2)cc1N1CCC(=O)NC1=O` [Compound 27, N-(3-(6-(4-((9-(3-(2,4-Dioxotetrahydropyrimidin-1(2H)-yl)-4-methylbenzoyl)-3,9-diazaspiro[5.5]undecan-3-yl)methyl)phenyl)-7H-pyrrolo[2,3-d]pyrimidin-4-yl)-5-fluoro-2-methylphenyl)-2-fluoro-4-(2-hydroxypropan-2-yl)benzamide] were 0.81 nM and 2.8%.
In the case of `Cc1ccc(C(=O)N2CCC3(CCN(CCc4ccc(-c5cc6c(-c7cc(F)cc(NC(=O)c8ccc(C(C)(C)O)cc8F)c7C)ncnc6[nH]5)cc4)CC3)CC2)cc1N1CCC(=O)NC1=O` [Compound 5, N-(3-(6-(4-(2-(9-(3-(2,4-Dioxotetrahydropyrimidin-1(2H)-yl)-4-methylbenzoyl)-3,9-diazaspiro[5.5]undecan-3-yl)ethyl)phenyl)-7H-pyrrolo[2,3-d]pyrimidin-4-yl)-5-fluoro-2-methylphenyl)-2-fluoro-4-(2-hydroxypropan-2-yl)benzamide], the DC50 is 0.57 nM and the “BTK (C481S) Amax” value is on record as 2.5%.
The like results for `COc1ccc(C(=O)N2CCN(CCCCNCc3ccc(-c4cc5c(-c6cc(F)cc(NC(=O)c7ccc(C(C)(C)O)cc7F)c6C)ncnc5[nH]4)cc3)CC2)cc1N1CCC(=O)NC1=O` [Compound 40, N-(3-(6-(4-(((4-(4-(3-(2,4-dioxotetrahydropyrimidin-1(2H)-yl)-4-methoxybenzoyl)piperazin-1-yl)butyl)amino)methyl)phenyl)-7H-pyrrolo[2,3-d]pyrimidin-4-yl)-5-fluoro-2-methylphenyl)-2-fluoro-4-(2-hydroxypropan-2-yl)benzamide] were, in that order, 3.03 nM and 2.9%.
